Laboratory results reported in PubChem BioAssay AID248 (DTP/NCI, 2004).
“And” between values parts separate entries of the source, which are not always exact repeats. Equal entries are not always repeated. Inconclusive results and toxic doses are left out. Rule as the data show it: active = T/C of 150% or more; inactive = T/C below 125%.

Tested on: L1210 leukemia ip in BDF1 mice, survival T/C
Test: NCI In Vivo Anticancer Drug Screen. Data for tumor model L1210 Leukemia (intraperitoneal) in B6D2F1 (BDF1) mice
Settings: endpoint: mean survival time, higher = longer survival
How it was run: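 Mice bearing the transplanted tumor received compound or vehicle. Survival of the treated group was divided by that of the vehicle-treated control group to give the ratio.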

[1] = dose: 50.0 mg/kg/injection, schedule: Q04DX003 (ip), vehicle: saline
[2] = dose: 100.0 mg/kg/injection, schedule: Q04DX003 (ip), vehicle: other
[3] = dose: 200.0 mg/kg/injection, schedule: Q04DX003 (ip), vehicle: other
[4] = dose: 100.0 mg/kg/injection, schedule: Q04DX003 (ip), vehicle: saline
[5] = dose: 100.0 mg/kg/injection, schedule: Q01DX009 (ip), vehicle: saline with Tween-80
[6] = dose: 200.0 mg/kg/injection, schedule: Q01DX009 (ip), vehicle: saline with Tween-80
[7] = dose: 50.0 mg/kg/injection, schedule: Q01DX009 (ip), vehicle: Klucel (hydroxypropylcellulose) (HPC)
[8] = dose: 100.0 mg/kg/injection, schedule: Q01DX009 (ip), vehicle: Klucel (hydroxypropylcellulose) (HPC)
[9] = dose: 100.0 mg/kg/injection, schedule: Q04DX003 (ip), vehicle: Klucel (hydroxypropylcellulose) (HPC)
[10] = dose: 200.0 mg/kg/injection, schedule: Q01DX009 (ip), vehicle: Klucel (hydroxypropylcellulose) (HPC)
[11] = dose: 200.0 mg/kg/injection, schedule: Q04DX003 (ip), vehicle: Klucel (hydroxypropylcellulose) (HPC)
[12] = dose: 100.0 mg/kg/injection, schedule: Q04DX003 (ip), vehicle: saline with Tween-80

Measured: T/C

CCC1CN2C(=N1)c1ccccc1-c1cc(Br)ccc12 (stereo not drawn)
inactive: dose: 2.5 mg/kg/injection, schedule: Q01DX009 (ip), vehicle: Klucel (hydroxypropylcellulose) (HPC) 104 % of control | dose: 2.5 mg/kg/injection, schedule: Q04DX003 (ip), vehicle: Klucel (hydroxypropylcellulose) (HPC) 100 % of control | dose: 5.0 mg/kg/injection, schedule: Q01DX009 (ip), vehicle: Klucel (hydroxypropylcellulose) (HPC) 98 % of control | dose: 5.0 mg/kg/injection, schedule: Q04DX003 (ip), vehicle: Klucel (hydroxypropylcellulose) (HPC) 100 % of control | dose: 10.0 mg/kg/injection, schedule: Q01DX009 (ip), vehicle: Klucel (hydroxypropylcellulose) (HPC) 116 % of control | dose: 10.0 mg/kg/injection, schedule: Q04DX003 (ip), vehicle: Klucel (hydroxypropylcellulose) (HPC) 96 % of control

COc1ccc2c(C(=O)N(CCCl)CCCl)cc3cc(OC)c(OC)cc3c2c1
inactive: dose: 25.0 mg/kg/injection, schedule: Q04DX003 (ip), vehicle: saline 116 % of control | [1] 102 % of control

NOCc1ccsn1
inactive: dose: 100.0 mg/kg/injection, schedule: Q01DX001 (ip), vehicle: other 105 % of control | dose: 100.0 mg/kg/injection, schedule: Q01DX009 (ip), vehicle: sodium bicarbonate 96 % of control | [2] 102 % of control | dose: 200.0 mg/kg/injection, schedule: Q01DX001 (ip), vehicle: other 111 % of control | dose: 200.0 mg/kg/injection, schedule: Q01DX009 (ip), vehicle: sodium bicarbonate 98 % of control | [3] 95 % of control | dose: 400.0 mg/kg/injection, schedule: Q01DX001 (ip), vehicle: other 94 % of control

CCN(CC)CCSC(=S)N1c2ccccc2Sc2ccccc21
inactive: dose: 17.5 mg/kg/injection, schedule: Q01DX009 (ip), vehicle: saline 90 % of control | dose: 17.5 mg/kg/injection, schedule: Q04DX003 (ip), vehicle: Klucel (hydroxypropylcellulose) (HPC) 102 % of control | dose: 35.0 mg/kg/injection, schedule: Q01DX009 (ip), vehicle: saline 96 % of control | dose: 35.0 mg/kg/injection, schedule: Q04DX003 (ip), vehicle: Klucel (hydroxypropylcellulose) (HPC) 93 % of control | dose: 70.0 mg/kg/injection, schedule: Q01DX009 (ip), vehicle: saline 87 % of control | dose: 70.0 mg/kg/injection, schedule: Q04DX003 (ip), vehicle: Klucel (hydroxypropylcellulose) (HPC) 96 % of control | dose: 140.0 mg/kg/injection, schedule: Q01DX009 (ip), vehicle: saline 91 % of control | dose: 140.0 mg/kg/injection, schedule: Q04DX003 (ip), vehicle: Klucel (hydroxypropylcellulose) (HPC) 98 % of control | dose: 280.0 mg/kg/injection, schedule: Q04DX003 (ip), vehicle: Klucel (hydroxypropylcellulose) (HPC) 95 % of control

CN(C)c1ccc(N=Cc2cc[n+](C)cc2)cc1
inactive: dose: 25.0 mg/kg/injection, schedule: Q01DX009 (ip), vehicle: saline 92 % of control | dose: 50.0 mg/kg/injection, schedule: Q01DX009 (ip), vehicle: saline 100 % of control | [4] 87 % of control

Cc1cc(C)c(NC(N)=S)cc1C
inactive: dose: 100.0 mg/kg/injection, schedule: Q04DX002 (ip), vehicle: Klucel (hydroxypropylcellulose) (HPC) 92 % of control | dose: 200.0 mg/kg/injection, schedule: Q04DX002 (ip), vehicle: Klucel (hydroxypropylcellulose) (HPC) 94 % of control

CCNC(=O)N(Cc1ccccc1)Cc1ccccc1
inactive: [5] 98 % of control | [6] 93 % of control

CNC(=S)N/N=C/c1cnccn1
inactive: dose: 50.0 mg/kg/injection, schedule: Q01DX001 (ip), vehicle: saline 100 % of control | dose: 100.0 mg/kg/injection, schedule: Q01DX001 (ip), vehicle: saline 100 % of control | dose: 200.0 mg/kg/injection, schedule: Q01DX001 (ip), vehicle: saline 104 % of control

N#CCCS(=O)(=O)CCc1ccccc1
inactive: dose: 75.0 mg/kg/injection, schedule: Q01DX009 (ip), vehicle: Klucel (hydroxypropylcellulose) (HPC) 96 % of control | dose: 150.0 mg/kg/injection, schedule: Q01DX009 (ip), vehicle: Klucel (hydroxypropylcellulose) (HPC) 96 % of control | dose: 300.0 mg/kg/injection, schedule: Q01DX009 (ip), vehicle: Klucel (hydroxypropylcellulose) (HPC) 105 % of control

Oc1ccc(OCc2ccccc2)cc1
inactive: dose: 25.0 mg/kg/injection, schedule: Q01DX009 (ip), vehicle: Klucel (hydroxypropylcellulose) (HPC) 110 % of control | [7] 88 % of control | [8] 100 % of control | [2] 103 % of control | [3] 102 % of control | dose: 400.0 mg/kg/injection, schedule: Q04DX003 (ip), vehicle: other 93 % of control

O/N=C/CCCC/C=N/O
inactive: dose: 50.0 mg/kg/injection, schedule: Q01DX009 (ip), vehicle: saline with Tween-80 91 % of control | [5] 91 % of control | [6] 91 % of control

CSc1ncc(C(=O)O)c(=O)[nH]1
inactive: [7] 95 % of control | [8] 88 % of control and 90 % of control | [9] 104 % of control | [10] 94 % of control | [11] 101 % of control | dose: 400.0 mg/kg/injection, schedule: Q01DX009 (ip), vehicle: Klucel (hydroxypropylcellulose) (HPC) 88 % of control | dose: 400.0 mg/kg/injection, schedule: Q04DX003 (ip), vehicle: Klucel (hydroxypropylcellulose) (HPC) 102 % of control

OCCC(c1ccccc1)(c1ccccc1)c1ccccc1
inactive: dose: 6.25 mg/kg/injection, schedule: Q04DX003 (ip), vehicle: saline with Tween-80 98 % of control | dose: 12.5 mg/kg/injection, schedule: Q04DX003 (ip), vehicle: saline with Tween-80 100 % of control | dose: 25.0 mg/kg/injection, schedule: Q04DX003 (ip), vehicle: saline with Tween-80 89 % of control and 91 % of control | [12] 90 % of control

COc1ccc(/C=C/c2ccc3ccccc3[n+]2C)c(OC)c1OC
inactive: dose: 5.0 mg/kg/injection, schedule: Q01DX009 (oral), vehicle: carboxymethylcellulose (CMC) 104 % of control | dose: 5.0 mg/kg/injection, schedule: Q04DX003 (ip), vehicle: saline with Tween-80 106 % of control | dose: 10.0 mg/kg/injection, schedule: Q01DX009 (oral), vehicle: carboxymethylcellulose (CMC) 98 % of control | dose: 10.0 mg/kg/injection, schedule: Q04DX003 (ip), vehicle: saline with Tween-80 114 % of control | dose: 20.0 mg/kg/injection, schedule: Q01DX009 (oral), vehicle: carboxymethylcellulose (CMC) 106 % of control | dose: 20.0 mg/kg/injection, schedule: Q04DX003 (ip), vehicle: saline with Tween-80 108 % of control | dose: 40.0 mg/kg/injection, schedule: Q01DX009 (oral), vehicle: carboxymethylcellulose (CMC) 109 % of control | dose: 80.0 mg/kg/injection, schedule: Q01DX009 (oral), vehicle: carboxymethylcellulose (CMC) 97 % of control

CCCCCCCCCCCCCCCCNS(=O)(=O)c1ccc(NN)cc1
inactive: [7] 98 % of control | [8] 99 % of control | [9] 97 % of control | [10] 91 % of control | [11] 95 % of control

N#CCC(CC#N)C(c1cccc2ccccc12)c1cccc2ccccc12
inactive: dose: 75.0 mg/kg/injection, schedule: Q04DX002 (ip), vehicle: Klucel (hydroxypropylcellulose) (HPC) 94 % of control | dose: 150.0 mg/kg/injection, schedule: Q04DX002 (ip), vehicle: Klucel (hydroxypropylcellulose) (HPC) 101 % of control | dose: 300.0 mg/kg/injection, schedule: Q04DX002 (ip), vehicle: Klucel (hydroxypropylcellulose) (HPC) 90 % of control

O=C(O)c1cccc2ccccc12
inactive: [5] 89 % of control | [6] 100 % of control

[Br][Nd]([Br])[Br]
inactive: [1] 96 % of control | [4] 91 % of control | dose: 200.0 mg/kg/injection, schedule: Q04DX003 (ip), vehicle: saline 97 % of control | dose: 400.0 mg/kg/injection, schedule: Q04DX003 (ip), vehicle: saline 86 % of control

CC1(C)OC2C(CNCCCl)OC(OCc3ccccc3)C2O1 (stereo not drawn)
inactive: [1] 96 % of control | [4] 96 % of control

CC(=O)NNC(=O)c1ccccc1
inactive: [5] 101 % of control | dose: 100.0 mg/kg/injection, schedule: Q01DX009 (ip), vehicle: saline 106 % of control | [12] 106 % of control | [6] 109 % of control | dose: 200.0 mg/kg/injection, schedule: Q01DX009 (ip), vehicle: saline 113 % of control | dose: 200.0 mg/kg/injection, schedule: Q04DX003 (ip), vehicle: saline with Tween-80 108 % of control | dose: 400.0 mg/kg/injection, schedule: Q04DX003 (ip), vehicle: saline with Tween-80 101 % of control
